13 compounds from ChEMBL document CHEMBL1144614, “Darpones and water-soluble aminobutoxylated darpone derivatives are distinguished by matrix COMPARE analysis” (Bioorg Med Chem Lett, 2007) can be followed below.

For one series, the system named is HCT-15. The series can be described thus: Growth inhibition of HCT15 cells. The class given is functional. As to conditions: Homo sapiens.
The nature of series [1]: Solubility in phosphate buffer at pH 4.5. The format is physicochemical.

For orientation: GI50 means the concentration that inhibits growth by half. Read a low GI50 as more potent growth inhibition. By solubility is commonly meant the dissolved amount per volume that the medium holds. A lower solubility goes with a poorly soluble substance. On to `Cl.O=C1Cc2c(-c3ccc(OCCCCN4CCOCC4)cc3)cc(-c3cccc(Cl)c3)nc2-c2ccccc2N1`, for which it took 1200 nM to inhibit growth with HCT-15 by half (GI50). Also, in series [1], the solubility was greater than 500 µg/mL.
For `CN1CCN(CCCCOc2ccc(-c3cc(-c4cccc(Cl)c4)nc4c3CC(=O)Nc3ccccc3-4)cc2)CC1.Cl.Cl`, in that order: 910 nM and greater than 500 µg/mL.
For `CN1CCN(CCCCOc2ccc3c(c2)NC(=O)Cc2c(-c4ccccc4)cc(-c4cccc(Cl)c4)nc2-3)CC1.Cl.Cl`, the GI50 in the series with HCT-15 amounted to 810 nM. The compound further returned a solubility in series [1] greater than 500 µg/mL.
Take `COc1ccc(-c2cc(-c3ccccc3)c3c(n2)-c2ccccc2NC(=O)C3)cc1Cl`: the GI50 with HCT-15 was 3000 nM.
The compound `Cl.O=C1Cc2c(-c3ccccc3)cc(-c3cccc(Cl)c3)nc2-c2ccc(OCCCCN3CCOCC3)cc2N1` had a GI50 in the series with HCT-15 of 1600 nM. The same compound yielded a solubility in series [1] greater than 500 µg/mL.
Compound `COc1ccc2c(c1)NC(=O)Cc1c(-c3ccccc3)cc(-c3cccc(Cl)c3)nc1-2` came in with a GI50 with HCT-15 greater than 100000 nM.
Compound `Cl.NCCCCOc1ccc2c(c1)NC(=O)Cc1c(-c3ccccc3)cc(-c3cccc(Cl)c3)nc1-2` gave a GI50 in the series with HCT-15 of 1800 nM. The compound also registered a solubility in series [1] of less than 5 µg/mL.
In the case of `Cl.NCCCCOc1ccc(-c2cc(-c3cccc(Cl)c3)nc3c2CC(=O)Nc2ccccc2-3)cc1`, in the series with HCT-15, the GI50 was 6600 nM. Further, the solubility in series [1] is less than 5 µg/mL.
For `Cl.NCCCCOc1ccc(-c2cc(-c3ccccc3)c3c(n2)-c2ccccc2NC(=O)C3)cc1Cl`, in that order: 13800 nM and less than 5 µg/mL.
In the same order, the values of `Cl.O=C1Cc2c(-c3ccccc3)cc(-c3ccc(OCCCCN4CCOCC4)c(Cl)c3)nc2-c2ccccc2N1` are 2300 nM and 5 µg/mL.
With `COc1ccc(-c2cc(-c3cccc(Cl)c3)nc3c2CC(=O)Nc2ccccc2-3)cc1`, growth in the series with HCT-15 was halved (GI50) at 1900 nM.
In turn, `CN1CCN(CCCCOc2ccc(-c3cc(-c4ccccc4)c4c(n3)-c3ccccc3NC(=O)C4)cc2Cl)CC1.Cl.Cl` gave a GI50 in the series on HCT-15 of 870 nM. This compound also returned a solubility in series [1] of less than 5 µg/mL.
`O=C1Cc2c(-c3ccccc3)cc(-c3cccc(Cl)c3)nc2-c2ccccc2N1`: growth in the series on HCT-15 was halved (GI50) at 2700 nM.
